Laboratory results: US7598092B2, “Methods, devices, systems and computer program products for stochastic, competitive, force-based analyte detection” (priority 2006, dated 2009)
Read-outs that look alike come from different tables or passages of the source. Blank lines part the entries; values can stand above or below the compound they belong to.

What was measured:
galectin 3 = galectin 3 (Mus musculus, UniProt P16110); assay: isothermal titration calorimetry of soluble ligand binding to galectin 3; set-up: species or system Murine
Murine galectin 3 = Murine galectin 3 (Mus musculus, UniProt P16110); details: Gaussian fit of 10 pN bins
streptavidin = streptavidin (Streptomyces avidinii, UniProt P22629); details: cited from earlier work
Avidin = Avidin (Gallus gallus, UniProt P02701); details: cited from earlier work
Avidin, sequence (P02701 25-152): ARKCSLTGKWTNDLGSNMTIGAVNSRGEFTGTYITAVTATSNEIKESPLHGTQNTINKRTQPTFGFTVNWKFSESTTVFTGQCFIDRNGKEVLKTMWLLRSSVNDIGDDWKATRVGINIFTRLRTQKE

Murine galectin 3, sequence (P16110 whole entry): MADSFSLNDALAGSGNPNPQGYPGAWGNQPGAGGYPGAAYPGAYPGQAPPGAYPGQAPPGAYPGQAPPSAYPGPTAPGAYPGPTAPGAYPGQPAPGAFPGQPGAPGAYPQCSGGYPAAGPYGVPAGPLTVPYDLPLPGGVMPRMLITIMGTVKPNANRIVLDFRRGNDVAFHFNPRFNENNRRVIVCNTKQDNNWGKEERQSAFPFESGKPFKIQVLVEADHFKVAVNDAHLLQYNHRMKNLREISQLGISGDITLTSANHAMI
galectin 3, sequence (P16110 whole entry): as above

SMILES: CO[C@@H]1O[C@H](CO)[C@@H](O[C@@H]2O[C@H](CO)[C@H](O)[C@H](O)[C@H]2O)[C@H](O)[C@H]1O [β-methyl lactoside]
association constant, the affinity measured by isothermal titration calorimetry (galectin 3): 6400±100

average rupture force (Murine galectin 3; Fe^3+ surface immobilization of galectin 3): 71 pN | average rupture force (Murine galectin 3; Ni^2+ surface immobilization of galectin 3): 72 pN
SMILES: OC[C@H]1O[C@@H](O[C@H]2[C@H](O)[C@@H](O)C(O)O[C@@H]2CO)[C@H](O)[C@@H](O)[C@H]1O (some centres unmarked) [lactose]

SMILES: O=C(O)CCCC[C@@H]1SC[C@@H]2NC(=O)N[C@@H]21 [biotin, Biotin]
Ka (streptavidin): ~10^14 M^−1 | Ka (Avidin): 10^13-10^15 M^−1
